Patent US4331666A, “3-[(8-Carboxy-6-tetraz olo[1,5-b]pyridazinyl)-thiomethyl]-7-[2-(2-amino-4-thiazolyl)-2-methoxyim ino-acetamido]-3-cephem-4-carboxylic acid” (Farmitalia Carlo Erba S.p.A., priority 1979, dated 1982)
Where two headings read alike, the source gives them in different places.

Assays:
[1] = test system: 10 strains of Pseudomonas aeruginosa, 4 strains of Proteus vulgaris and 4 strains of Proteus morganii; assay: test on a series of strains of Pseudomonas aeruginosa, Proteus vulgaris and Proteus morganii; format: cell-based; conditions: 10 strains Pseudomonas aeruginosa, 4 strains Proteus vulgaris, 4 strains Proteus morganii
streptococci = format: cell-based
Gram-negative bacteria = assay: antibacterial activity against most Gram-negative bacteria (compared with Cefazolin and Cefuroxime); format: cell-based
[2] = test system: Bacteroides fragilis VPL 9032; assay: in vitro activity against Bacteroides fragilis VPL 9032; format: cell-based
[3] = test system: mice infected with Escherichia coli G, Klebsiella pneumoniae ATCC 10031, Proteus mirabilis ATCC 9921, Escherichia coli Tem., Haemophilus influenzae Salmonella …; assay: in vivo activity in infected mice; conditions: in words
[4] = test system: Pseudomonas aeruginosa G.; assay: in vitro activity against Pseudomonas aeruginosa G.; format: cell-based
[5] = approximate acute toxicity (LD50) in the mouse; conditions: in vivo, single intravenous administrations of increasing doses, measured on the seventh day
From the text: The toxicity of the compounds of the invention is quite negligible and therefore they can be safely used in therapy. […] Analogous activity and toxicity data have been found for the other compounds of the invention.

[6] = plasma half-life in the rat after intravenous injection; conditions: in vivo
[7] = plasma half-life in the mouse after intravenous injection; conditions: in vivo

SMILES | activity compared with Cefazolin and Cefuroxime [1] | times more active than Cefazolin against streptococci (streptococci; ratio vs Cefazolin, streptococci) | times more active than Cefazolin and Cefuroxime against most Gram-negative bacteria (Gram-negative bacteria; ratio vs Cefazolin and Cefuroxime) | in vitro activity [2] | activity in vivo tests [3] | in vitro activity [4] | times more active than Cefazolin against streptococci (streptococci) | LD50 at 168 h [5] [mg/kg] | half-life [6] [h] | half-life [7] [h] | times more active than Cefazolin against most Gram-negative bacteria (Gram-negative bacteria; ratio vs Cefazolin) | times more active than Cefuroxime against most Gram-negative bacteria (Gram-negative bacteria; ratio vs Cefuroxime) [times]
CON=C(C(=O)NC1C(=O)N2C(C(=O)O)=C(CSc3cc(N)c4nnnn4n3)CSC12)c1csc(N)n1 (stereo not drawn) [FCE 20127, 3-[(8-amino-6-tetrazolo[1,5-b]pyridazinyl)-thiomethyl]-7-[2-(2-amino-4-thiazolyl)-2-methoxyiminoacetamido]-3-cephem-4-carboxylic acid (syn-isomer)] | several times more active than Cefazolin and Cefuroxime | about 24 times | about 30 times | – | – | – | – | – | – | – | – | –
CON=C(C(=O)NC1C(=O)N2C(C(=O)O)=C(CSc3cc(C(=O)O)c4nnnn4n3)CSC12)c1csc(N)n1 (stereo not drawn) [FCE 20485, 3-[(8-carboxy-6-tetrazolo[1,5-b]pyridazinyl)-thiomethyl]-7-[2-(2-amino-4-thiazolyl)-2-methoxyiminoacetamido]-3-cephem-4-carboxylic acid (syn-isomer)] | – | – | – | significant in vitro activity | high activity | significant in vitro activity | about 5 times | > 2000 | ~1.67 | ~1.5 | about 32 times | ~40
